# Columns and labels:
# [1] = system: HPV-transformed human middle ear epithelial cell line HMEEC-1; assay: G418 selection of cultured cells; type: cell-based; conditions: G418 0.4 mg/ml, 2 and 7 days post addition
# Method: (§1) Passage 3 human middle ear epithelial cell cultures (at 50-70% confluence) were infected with 1 ml of virus stock diluted in 9 ml of fresh SFM-HG for 48 hours. The virus was then removed and the medium was replaced with fresh SFM-HG. The cells were allowed to proliferate and once at 70% confluence, they were trypsinized and re-seeded in fresh SFM-HG medium containing G418 (Gibco-BRL, Gaithersburg, […].) at a concentration of 0.4 mg/ml.
# (§2) Cells were photographed prior to selection, at 2 days and at 7 days post G418 addition (panels, a, b and c, respectively). […]
# [2] = system: primary human middle ear epithelial cells; assay: G418 selection of cultured cells; type: cell-based; conditions: 2 and 7 days post G418 addition
# Method: as §1, §2
# [3] = system: MUC2 mRNA; assay: RT-PCR of mucin mRNA expression after retinoic acid; type: cell-based, human; conditions: primary cultures
# Method: Polymerase chain reaction (PCR) assays were performed essentially following the package insert of the commercially available Gene-Amp kit (document No. 55635-6/89, available from Perkin-Elmer/Cetus, Emeryville, Calif.). The following reagents were mixed in a 0.5 mL polypropylene tube and used in performing PCR:
# After mixing, the reaction mixture was overlayed with a drop of mineral oil to 30 cycles of PCR, with the following cycle profile: 30 second denaturation, 1 minute annealing and 2 minute extension. The PCR products were run on a 1.2% TAE agarose gel.
# Expression of various genes was confirmed using the following PCR primers specific for: […]
# [4] = system: MEK1/2 (MAPK kinase); assay: Assay for MEK (phospho-MEK1/2 antibody detection); type: cell-based, human; conditions: HMEEC-1 cells treated for 5, 15 and 45 minutes
# Method: Cells were treated with IL-1 alpha for 5, 15 and 45 minutes. The MEK assay was done according to the manufacturer's protocol (PhosphoPlus, MEK1/2 Antibody Kit; New England BioLabs, Beverly, Mass.). Antibodies specific to the phosphorylated (phospho-MEK1/2) and unphosphorylated (MEK1/2) MEK protein were used to distinguish between the phosphorylated and unphosphorylated forms of the protein.
compound,measurement,setting,value
CN[C@@H]1[C@@H](O)[C@@H](O[C@@H]2[C@@H](O)[C@H](O[C@H]3O[C@H]([C@@H](C)O)[C@@H](O)[C@H](O)[C@H]3N)[C@@H](N)C[C@H]2N)OC[C@]1(C)O [G418],Response of cells to G418,[1],resistance
same,Response of cells to G418,[2],sensitivity
CC1=C(/C=C/C(C)=C/C=C/C(C)=C/C(=O)O)C(C)(C)CCC1 [Retinoic acid],MUC2 expression in response to RA,[3],no effect
IL-1 alpha: cytokine used to treat HMEEC-1 cells,Activation (phosphorylation) of MEK1/2,[4],activates

# Source: patent US6358688B1, “Immortalized human middle ear epithelial cell lines” (House Ear Institute, priority 1999, dated 2002)
